What was measured:
[1] = cited from earlier work
[2] = Dispersion behavior by small-angle X-ray scattering method (SAXS); type: physicochemical
Text: Further, the dispersion behavior of the polyglycerol oleic acid ester (PG) was examined using a small-angle X-ray scattering method (SAXS). It turned out that the polyglycerol oleic acid ester (PG) in ethanol was a molecular assembly having the radius of inertia of about 7 Å and the polyglycerol oleic acid ester (PG) in triolein was a molecular assembly having the radius of inertia of about 90 Å. As a result, it can be said that the stability of emulsions can be achieved by increasing the ratio of triolein with respect to ethanol.

[3] = Stability of the emulsions examined by a turbidity method; type: physicochemical; conditions: addition amount of PG varied within 1 wt %-5 wt %
Text: Next, the addition amount of polyglycerol oleic acid ester (PG) was variously changed within the range of 1 wt %-5 wt % and the stability of the emulsions was examined by a turbidity method.

[4] = Stability of the emulsion (time to phase separation of E/O emulsion); type: physicochemical; conditions: concentration of the emulsifying agent 5%; ratio of triolein and ethanol 8:2
Protocol: First, sunflower seed oil (having the triolein purity 90% or more, as produced by Nippon Lever B. V.) as a continuous phase, 95% ethanol as a dispersed phase, and polyglycerol oleic acid ester (MO750, HLB12.9) as an emulsifying agent (surfactant) were prepared.
Next, polyphenol was dissolved in ethanol. As the polyphenol to be used, catechin, anthocyanin, quercetin can be listed.
Thereafter, the ethanol, to which 1 wt % polyglycerol oleic acid ester (PG) was added, and triolein (sunflower seed oil) were stirred at 3000 rpm for ten minutes with a homogenizer (Polytron: PT3000), thereby attempting the production of an emulsion.
Furthermore, the possibility of using emulsifying agents other than polyglycerol oleic acid ester (PG) was examined. In Table 2, DAO750 indicates decaglycerol decaester, PO500 indicates hexaglycerol pentaester, PO310 indicates tetraglycerol pentaester, MO310 indicates tetraglycerol monoester, MO500 indicates hexaglycerol monoester, and MO750 indicates polyglycerol oleic acid ester.

Substance | Solubility with respect to water [1] | Radius of inertia of molecular assembly ([2]; in ethanol) | Radius of inertia of molecular assembly ([2]; in triolein) | Change in emulsion stability [3] | Stability of E/O emulsion by emulsifying agent [4]
anthocyanin | slightly soluble in water |  |  |  | 
polyglycerol oleic acid ester [MO750] |  | about 7 Å | about 90 Å | A conspicuous change in emulsion stability was not found | +++ (The sample did not cause the phase separation until five months.)
